Experimental data reported in ChEMBL document CHEMBL1152923, “ent-Kaurane diterpenoids from Isodon pharicus” (J Nat Prod, 2009).

Columns and labels:
Assay type in all cases: functional, cell-based
NB-4 = assay: Cytotoxicity against human NB4 cells after 48 hrs by SRB method; details: NB-4, 48 h
A549 = assay: Cytotoxicity against human A549 cells after 48 hrs by SRB method; details: A549, 48 h
SH-SY5Y = assay: Cytotoxicity against human SH-SY5Y cells after 48 hrs by SRB method
PC-3 = assay: Cytotoxicity against human PC3 cells after 48 hrs by SRB method; details: PC-3, 48 h
MCF7 = assay: Cytotoxicity against human MCF7 cells after 48 hrs by SRB method; details: MCF7, 48 h

SMILES | IC50 (NB-4) [µM] | IC50 (A549) [µM] | IC50 (SH-SY5Y) [µM] | IC50 (PC-3) [µM] | IC50 (MCF7) [µM]
C=C1C(=O)[C@]23[C@H](O)[C@H]1C(=O)C[C@H]2[C@]1(C)CC[C@H](OC(C)=O)C(C)(C)[C@H]1C[C@H]3OC(C)=O | > 10 | > 10 | > 10 | > 10 | > 10
C=C1C(=O)[C@@]23[C@H](O)C[C@@H]4C(C)(C)[C@H](O)CC[C@@]4(C)[C@@H]2C[C@H](OC(C)=O)[C@@H]1[C@H]3O | 8.32 | > 10 | 8.12 | > 10 | > 10
C=C1[C@H]2[C@@H](OC(C)=O)[C@@]3(CC[C@@H]4C(C)(C)[C@@H](O)CC[C@@]4(C)[C@@H]3C[C@@H]2O)[C@@H]1O | > 10 | > 10 | > 10 | > 10 | > 10
COC[C@@H]1C(=O)[C@@]23[C@H](O)C[C@@H]4C(C)(C)[C@@H](OC(C)=O)CC[C@@]4(C)[C@@H]2CC(=O)[C@@H]1[C@H]3O | 8.74 | > 10 | > 10 | 7.42 | > 10
C=C1C(=O)[C@@]23[C@H](O)C[C@@H]4C(C)(C)[C@@H](OC(C)=O)C[C@H](O)[C@@]4(C)[C@@H]2C[C@H](O)[C@@H]1[C@H]3O | > 10 | > 10 | > 10 | > 10 | > 10
C=C1C(=O)[C@@]23[C@@H]4OC(C)(C)O[C@@H]2C[C@@H]2C(C)(C)[C@H](O)CC[C@@]2(C)[C@@H]3C[C@H](O)[C@@H]14 | 3.56 | 6.02 | > 10 | > 10 | > 10
C=C1C(=O)[C@@]23[C@H](O)C[C@@H]4C(C)(C)[C@@H](O)CC[C@@]4(C)[C@@H]2C[C@H](O)[C@@H]1[C@H]3O [3-EPIPSEURATA B] | > 10 | > 10 | > 10 | > 10 | > 10
C=C1[C@@H]2C(=O)C[C@H]3[C@@]4(C)[C@H](C[C@@H](O)[C@@]3([C@@H]1O)[C@@H]2O)C(C)(C)[C@@H](OC(C)=O)C[C@@H]4O [DIHYDROPSEURATA F] | > 10 | > 10 | > 10 | > 10 | > 10
C=C1C(=O)[C@@]23[C@H](O)C[C@@H]4C(C)(C)C(=O)CC[C@@]4(C)[C@@H]2CC[C@@H]1[C@H]3O [GLAUCOCALYXIN A] | 2.9 | 5.39 | > 10 | > 10 | 8.73
C=C1C(=O)[C@@]23[C@H](O)C[C@@H]4C(C)(C)C(=O)CC[C@@]4(C)[C@@H]2CC[C@@H]1[C@H]3OC(C)=O [GLAUCOCALYXIN B] | 7.86 | 6.22 | > 10 | > 10 | > 10
C=C1C(=O)[C@@]23[C@H](O)C[C@@H]4C(C)(C)[C@@H](OC(C)=O)C[C@H](O)[C@@]4(C)[C@@H]2CC[C@@H]1[C@H]3O [ISODOMEDIN] | 7.29 | > 10 | > 10 | > 10 | > 10
C=C1C(=O)[C@@]23[C@H](O)C[C@@H]4C(C)(C)[C@@H](OC(C)=O)CC[C@@]4(C)[C@@H]2CC[C@@H]1[C@H]3O [LEUKAMENIN E] | 4 | > 10 | > 10 | > 10 | > 10
C=C1C(=O)[C@@]23[C@H](O)C[C@@H]4C(C)(C)[C@@H](O)C[C@H](O)[C@@]4(C)[C@@H]2CC[C@@H]1[C@H]3O [MINHERYIN G] | > 10 | > 10 | > 10 | > 10 | > 10
C=C1C(=O)[C@@]23C(CC[C@@H]1[C@H]2O)[C@]1(C)CC[C@@H](O)C(C)(C)[C@H]1C[C@H]3O (stereo not given in full) [PSEURATA A] | 7.69 | 2.92 | > 10 | > 10 | 9.05
C=C1C(=O)[C@@]23[C@H](O)C[C@@H]4C(C)(C)[C@H](O)CC[C@@]4(C)[C@@H]2C[C@H](O)[C@@H]1[C@H]3O [PSEURATA B] | > 10 | > 10 | > 10 | > 10 | > 10
C=C1C(=O)[C@@]23[C@H](O)C[C@@H]4C(C)(C)[C@@H](OC(C)=O)CC[C@@]4(C)[C@@H]2CC(=O)[C@@H]1[C@H]3O [PSEURATA C] | 2.08 | 7.62 | > 10 | > 10 | > 10
C=C1C(=O)[C@@]23[C@H](O)C[C@@H]4C(C)(C)[C@@H](OC(C)=O)C[C@H](O)[C@@]4(C)[C@@H]2CC(=O)[C@@H]1[C@H]3O [PSEURATA F] | > 10 | > 10 | > 10 | > 10 | > 10
C=C1C(=O)[C@@]23C(CC[C@@H]1[C@H]2O)[C@]1(C)CC[C@H](O)C(C)(C)[C@H]1C[C@H]3O (stereo not given in full) [WANGZAOZIN A] | 9.02 | 9.29 | > 10 | > 10 | 5.8
